Experimental data taken from ChEMBL document CHEMBL2375312, “Novel and highly potent histamine H3 receptor ligands. Part 3: an alcohol function to improve the pharmacokinetic profile” (Bioorg Med Chem Lett, 2013).
pIC50, pKi: −log10 of the molar value.

Legend:
Histamine H3 receptor [1] = molecular target: Histamine H3 receptor (Mus musculus, UniProt P58406); assay: Displacement of [125I]-iodoproxyfan from histamine H3 receptor in mouse brain cortex after 1 hr by gamma counting analysis; format: tissue-based
Histamine H3 receptor (Mus musculus, UniProt P58406), sequence (P58406 whole entry): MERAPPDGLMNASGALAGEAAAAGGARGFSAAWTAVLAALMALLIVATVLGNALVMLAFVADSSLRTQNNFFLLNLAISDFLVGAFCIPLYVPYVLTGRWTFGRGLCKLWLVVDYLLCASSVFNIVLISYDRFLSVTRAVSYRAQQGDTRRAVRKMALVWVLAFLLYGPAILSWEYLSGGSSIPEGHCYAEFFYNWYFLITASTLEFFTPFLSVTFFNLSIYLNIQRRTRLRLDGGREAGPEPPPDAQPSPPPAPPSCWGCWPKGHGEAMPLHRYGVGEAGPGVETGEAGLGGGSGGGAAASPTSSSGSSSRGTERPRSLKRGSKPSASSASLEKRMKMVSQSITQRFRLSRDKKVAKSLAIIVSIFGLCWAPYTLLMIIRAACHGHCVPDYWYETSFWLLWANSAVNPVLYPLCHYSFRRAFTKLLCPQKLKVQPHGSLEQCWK

Histamine H3 receptor [2] = molecular target: Histamine H3 receptor (Homo sapiens, UniProt Q9Y5N1); assay: Displacement of [125I]-iodoproxyfan from human recombinant histamine H3 receptor expressed in HEK293 cells after 1 hr by gamma counting analysis; format: cell-based
Histamine H3 receptor (Homo sapiens, UniProt Q9Y5N1), sequence (Q9Y5N1 whole entry): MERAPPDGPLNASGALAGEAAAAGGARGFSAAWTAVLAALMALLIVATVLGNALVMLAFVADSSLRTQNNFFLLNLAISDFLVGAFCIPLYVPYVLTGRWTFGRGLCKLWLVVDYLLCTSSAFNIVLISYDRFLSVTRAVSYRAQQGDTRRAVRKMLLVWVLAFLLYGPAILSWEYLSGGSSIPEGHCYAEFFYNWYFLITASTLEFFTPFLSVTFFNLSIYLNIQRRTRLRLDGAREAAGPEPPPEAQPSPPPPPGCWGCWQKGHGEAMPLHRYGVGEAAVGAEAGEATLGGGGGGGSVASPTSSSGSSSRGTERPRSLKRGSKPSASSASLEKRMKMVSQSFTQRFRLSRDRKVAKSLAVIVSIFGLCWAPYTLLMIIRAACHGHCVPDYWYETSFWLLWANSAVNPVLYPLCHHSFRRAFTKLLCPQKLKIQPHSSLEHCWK

[3] = molecular target: Voltage-gated inwardly rectifying potassium channel KCNH2 (Homo sapiens, UniProt Q12809); assay: Binding affinity to human ERG
Voltage-gated inwardly rectifying potassium channel KCNH2, sequence (Q12809 whole entry): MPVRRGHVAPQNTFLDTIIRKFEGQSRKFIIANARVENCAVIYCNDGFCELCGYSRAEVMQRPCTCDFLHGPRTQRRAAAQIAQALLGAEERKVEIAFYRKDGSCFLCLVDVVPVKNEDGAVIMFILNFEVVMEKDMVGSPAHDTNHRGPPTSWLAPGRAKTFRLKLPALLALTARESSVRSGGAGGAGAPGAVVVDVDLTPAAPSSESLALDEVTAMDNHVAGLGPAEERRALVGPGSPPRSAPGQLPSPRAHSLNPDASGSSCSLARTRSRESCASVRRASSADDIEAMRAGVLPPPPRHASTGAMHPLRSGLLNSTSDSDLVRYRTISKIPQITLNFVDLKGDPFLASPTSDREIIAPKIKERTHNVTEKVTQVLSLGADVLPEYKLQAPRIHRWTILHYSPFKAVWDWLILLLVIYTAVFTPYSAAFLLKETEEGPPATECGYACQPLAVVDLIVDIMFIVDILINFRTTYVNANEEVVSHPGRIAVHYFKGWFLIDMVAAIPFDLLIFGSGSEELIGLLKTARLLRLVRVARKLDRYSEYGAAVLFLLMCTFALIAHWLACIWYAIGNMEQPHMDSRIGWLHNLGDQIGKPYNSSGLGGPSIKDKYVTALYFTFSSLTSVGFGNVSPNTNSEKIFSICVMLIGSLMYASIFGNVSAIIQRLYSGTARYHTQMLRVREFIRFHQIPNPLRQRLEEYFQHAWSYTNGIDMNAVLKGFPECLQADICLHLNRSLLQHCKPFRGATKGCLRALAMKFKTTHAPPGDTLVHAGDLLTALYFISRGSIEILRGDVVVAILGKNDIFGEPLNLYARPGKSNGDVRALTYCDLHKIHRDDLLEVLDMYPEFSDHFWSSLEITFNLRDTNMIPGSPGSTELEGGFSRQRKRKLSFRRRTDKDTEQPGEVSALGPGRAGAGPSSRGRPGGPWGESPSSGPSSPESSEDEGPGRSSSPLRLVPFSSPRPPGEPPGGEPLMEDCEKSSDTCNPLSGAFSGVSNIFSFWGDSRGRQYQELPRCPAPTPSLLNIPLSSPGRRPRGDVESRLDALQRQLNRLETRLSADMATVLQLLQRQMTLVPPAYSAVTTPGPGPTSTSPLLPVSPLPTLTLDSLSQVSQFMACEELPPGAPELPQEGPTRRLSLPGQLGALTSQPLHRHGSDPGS

Cytochrome P450 2C9 = Cytochrome P450 2C9 (Homo sapiens, UniProt P11712); assay: Inhibition of human recombinant CYP2C9; format: ADME
Cytochrome P450 2C9, sequence (P11712 whole entry): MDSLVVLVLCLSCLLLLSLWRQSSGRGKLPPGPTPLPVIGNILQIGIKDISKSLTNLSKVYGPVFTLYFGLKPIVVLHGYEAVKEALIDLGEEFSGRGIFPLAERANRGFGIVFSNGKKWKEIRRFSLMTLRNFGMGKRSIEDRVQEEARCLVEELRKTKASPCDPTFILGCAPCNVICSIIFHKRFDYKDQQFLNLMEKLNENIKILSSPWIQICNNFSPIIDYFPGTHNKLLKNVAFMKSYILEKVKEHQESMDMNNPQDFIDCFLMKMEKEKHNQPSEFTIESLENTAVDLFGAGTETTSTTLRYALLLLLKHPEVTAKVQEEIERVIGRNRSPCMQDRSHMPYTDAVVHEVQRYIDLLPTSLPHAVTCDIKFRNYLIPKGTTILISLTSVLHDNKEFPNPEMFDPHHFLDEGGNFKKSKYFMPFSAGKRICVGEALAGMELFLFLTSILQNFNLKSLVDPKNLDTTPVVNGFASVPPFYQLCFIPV

Cytochrome P450 2D6 = Cytochrome P450 2D6 (Homo sapiens, UniProt P10635); assay: Inhibition of human recombinant CYP2D6; format: ADME
Cytochrome P450 2D6, sequence (P10635 whole entry): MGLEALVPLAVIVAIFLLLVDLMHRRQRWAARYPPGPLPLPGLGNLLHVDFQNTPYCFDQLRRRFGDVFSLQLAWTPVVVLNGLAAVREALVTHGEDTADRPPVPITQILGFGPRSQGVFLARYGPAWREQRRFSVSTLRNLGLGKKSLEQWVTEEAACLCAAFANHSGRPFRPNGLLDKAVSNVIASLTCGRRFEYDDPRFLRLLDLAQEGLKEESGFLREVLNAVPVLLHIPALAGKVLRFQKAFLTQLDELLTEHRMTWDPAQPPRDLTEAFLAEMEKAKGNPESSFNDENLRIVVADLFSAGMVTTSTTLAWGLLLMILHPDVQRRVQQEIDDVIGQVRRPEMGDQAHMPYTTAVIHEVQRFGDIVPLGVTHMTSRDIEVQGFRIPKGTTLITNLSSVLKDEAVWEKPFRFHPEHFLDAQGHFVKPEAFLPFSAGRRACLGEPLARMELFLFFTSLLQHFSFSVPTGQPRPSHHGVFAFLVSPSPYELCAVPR

Cytochrome P450 3A4 = Cytochrome P450 3A4 (Homo sapiens, UniProt P08684); assay: Inhibition of human recombinant CYP3A4; format: ADME
Cytochrome P450 3A4, sequence (P08684 whole entry): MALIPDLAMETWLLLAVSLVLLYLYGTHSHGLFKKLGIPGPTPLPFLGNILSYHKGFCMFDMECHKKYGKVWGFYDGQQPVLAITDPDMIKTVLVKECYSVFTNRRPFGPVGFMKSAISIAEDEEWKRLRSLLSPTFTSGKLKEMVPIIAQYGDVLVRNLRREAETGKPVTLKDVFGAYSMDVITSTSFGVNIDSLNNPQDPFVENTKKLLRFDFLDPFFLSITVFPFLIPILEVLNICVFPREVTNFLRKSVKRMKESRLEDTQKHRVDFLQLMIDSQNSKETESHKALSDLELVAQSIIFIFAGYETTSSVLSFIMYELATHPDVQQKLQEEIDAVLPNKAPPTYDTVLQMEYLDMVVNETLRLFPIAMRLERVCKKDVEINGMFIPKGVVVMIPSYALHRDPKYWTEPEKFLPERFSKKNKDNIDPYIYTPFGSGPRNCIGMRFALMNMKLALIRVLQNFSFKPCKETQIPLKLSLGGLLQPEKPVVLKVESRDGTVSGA

Mus musculus [4] = assay: Inverse agonist activity at histamine H3 receptor in po dosed Swiss mouse assessed as release of N-tele-methylhistamine in brain after 90 mins by enzyme-immunoassay; format: functional; conditions: 1.5 h
Mus musculus [5] = assay: Inverse agonist activity at histamine H3 receptor in po dosed Swiss mouse assessed as release of N-tele-methylhistamine in brain after 90 mins by enzyme-immunoassay relative to ciproxifan; format: functional
[6] = AUC (0 to 8 hrs) in Swiss mouse plasma at 10 mg/kg, po by […] analysis; format: ADME, organism-based; set-up: time < 8 hr, dose 10 mg/kg, route oral
[7] = AUC (0 to 8 hrs) in Swiss mouse brain at 10 mg/kg, po by […] analysis; format: ADME, organism-based; set-up: time < 8 hr, dose 10 mg/kg, route oral
[8] = Half life in Swiss mouse brain; format: ADME, tissue-based
[9] = Cmax in Swiss mouse brain; format: ADME, tissue-based
[10] = Half life in Swiss mouse plasma; format: ADME
[11] = Tmax in Swiss mouse brain; format: ADME, tissue-based
[12] = Cmax in Swiss mouse plasma; format: ADME
[13] = Tmax in Swiss mouse plasma; format: ADME
[14] = AUC in Swiss mouse brain; format: ADME, organism-based
[15] = AUC in Swiss mouse plasma; format: ADME
[16] = Half life of the compound; format: physicochemical

Q: With CCCC(O)(CCC)c1ccc(OCCCN2CCCCC2)cc1 as the compound, how does the pKi (Histamine H3 receptor [1]) read?
A: 8.60

Q: With OCCC#Cc1ccc(OCCCN2CCCCC2)cc1 as the compound, how does the pKi (Histamine H3 receptor [2]) read?
A: 7.72

Q: With O[C@H]1CC[C@H](c2ccc(OCCCN3CCCCC3)cc2)CC1 as the compound, how does the pKi [3] read?
A: 5.24

Q: And the pIC50 (Cytochrome P450 2C9)?
A: 4.39

Q: What about the pIC50 (Cytochrome P450 2D6) of the same compound?
A: < 4.00

Q: And the pIC50 (Cytochrome P450 3A4)?
A: 4.52

Q: What about the ED50 (Mus musculus [4]) of the same compound?
A: 0.3 mg/kg

Q: And the Ratio (Mus musculus [5])?
A: 1

Q: What about the AUC(0-t) at 8 h [6] of the same compound?
A: 4980 ng·h/mL

Q: What about the AUC(0-t) at 8 h [7] of the same compound?
A: 18000 ng·h/mL

Q: What about the pKi (Histamine H3 receptor [1]) of the same compound?
A: 8.16

Q: What about the pKi (Histamine H3 receptor [2]) of the same compound?
A: 8.59

Q: With OC(c1ccc(OCCCN2CCCCC2)cc1)C1CCOCC1 (stereo unspecified) as the compound, how does the pKi (Histamine H3 receptor [2]) read?
A: 7.89

Q: Which results are given for OC1CCC(Cc2ccc(OCCCN3CCCCC3)cc2)CC1 (stereo unspecified)?
A: pKi (Histamine H3 receptor [1]): 8.20; pKi (Histamine H3 receptor [2]): 8.72

Q: With OCCc1ccc(OCCCN2CCCCC2)cc1 as the compound, how does the pKi (Histamine H3 receptor [2]) read?
A: 7.49

Q: With OCc1ccc(OCCCN2CCCCC2)cc1 as the compound, how does the pKi (Histamine H3 receptor [2]) read?
A: 7.64

Q: With OC1CCN([C@H]2CC[C@H](c3ccc(OCCCN4CCCCC4)cc3)CC2)CC1 (mixture of isomers) as the compound, how does the half-life [8] read?
A: > 600 min

Q: And the Cmax [9]?
A: 215 ng/mL

Q: What about the half-life [10] of the same compound?
A: 360 min

Q: What about the Tmax [11] of the same compound?
A: 3 h

Q: What about the Cmax [12] of the same compound?
A: 399 ng/mL

Q: What about the Tmax [13] of the same compound?
A: 1.5 h

Q: And the AUC [14]?
A: 1520 ng·h/mL

Q: What about the AUC [15] of the same compound?
A: 1520 ng·h/mL

Q: With OC1(c2ccc(OCCCN3CCCCC3)cc2)CCC1 as the compound, how does the pKi (Histamine H3 receptor [2]) read?
A: 7.74

Q: With CC(C)(O)CCc1ccc(OCCCN2CCCCC2)cc1 as the compound, how does the pKi (Histamine H3 receptor [2]) read?
A: 8.40

Q: With CCC(O)(CC)c1ccc(OCCCN2CCCCC2)cc1 as the compound, how does the pKi (Histamine H3 receptor [1]) read?
A: 7.85

Q: What about the pKi (Histamine H3 receptor [2]) of the same compound?
A: 8.85

Q: With OC1(c2ccc(OCCCN3CCCCC3)cc2)CCCCC1 as the compound, how does the pKi (Histamine H3 receptor [2]) read?
A: 8.41

Q: With C=CC(O)c1ccc(OCCCN2CCCCC2)cc1 (stereo unspecified) as the compound, how does the pKi (Histamine H3 receptor [1]) read?
A: 7.74

Q: What about the pKi (Histamine H3 receptor [2]) of the same compound?
A: 8.07

Q: With OCC#Cc1ccc(OCCCN2CCCCC2)cc1 as the compound, how does the pKi (Histamine H3 receptor [2]) read?
A: 7.82

Q: Which results are given for C=CCC(O)(CC=C)c1ccc(OCCCN2CCCCC2)cc1?
A: pKi (Histamine H3 receptor [1]): 8.37; pKi (Histamine H3 receptor [2]): 9.27

Q: With OC1(c2ccc(OCCCN3CCCCC3)cc2)CCOCC1 as the compound, how does the pKi (Histamine H3 receptor [2]) read?
A: 8.39

Q: With CC(C)(O)c1ccc(OCCCN2CCCCC2)cc1 as the compound, how does the pKi (Histamine H3 receptor [2]) read?
A: 8.17

Q: With CC(O)CCc1ccc(OCCCN2CCCCC2)cc1 (stereo unspecified) as the compound, how does the pKi (Histamine H3 receptor [2]) read?
A: 8.48

Q: For COCCCS(=O)(=O)c1ccc(-c2ccc(CCN3CCC[C@H]3C)cc2)cc1, which half-life [16] is on record?
A: 3000 min

Q: With OC(c1ccc(OCCCN2CCCCC2)cc1)C1CCCCC1 (stereo unspecified) as the compound, how does the pKi (Histamine H3 receptor [2]) read?
A: 8.54

Q: With OC1(c2ccc(OCCCN3CCCCC3)cc2)CCCC1 as the compound, how does the pKi (Histamine H3 receptor [1]) read?
A: 8.12

Q: For c1cc([C@H]2CC[C@H](N3CCOCC3)CC2)ccc1OCCCN1CCCCC1, which ED50 (Mus musculus [4]) is on record?
A: 1.3 mg/kg

Q: And the half-life [8]?
A: > 600 min

Q: What about the Cmax [9] of the same compound?
A: 2380 ng/mL

Q: And the half-life [10]?
A: 300 min

Q: What about the Tmax [11] of the same compound?
A: 1.5 h

Q: What about the Cmax [12] of the same compound?
A: 357 ng/mL

Q: What about the Tmax [13] of the same compound?
A: 1.5 h

Q: What about the AUC [14] of the same compound?
A: 15600 ng·h/mL

Q: And the AUC [15]?
A: 2110 ng·h/mL

Q: With C=CCC(O)c1ccc(OCCCN2CCCCC2)cc1 (stereo unspecified) as the compound, how does the pKi (Histamine H3 receptor [2]) read?
A: 8.16
